# Tests used:
# Water solubility = format: physicochemical
# Aβ-induced neurotoxicity = experiment: Rat model of Aβ-induced neurotoxicity (ICV Aβ40 + Aβ42 + ApoE4), radial eight-arm maze; format: in vivo, Sprague-Dawley male rats; details: 0.25% NDGA diet
# Description: In this model, rats are infused intracerebroventricularly (ICV) with Aβ adsorbed to an apo-lipoprotein carrier. Thus, to determine whether dicatechol (e.g., microglial inhibitor nordihydroguaiaretic acid) blocks Aβ-induced neurotoxicity the Frautschy model was used. […] Each group consisted of six rats fed either a control or an NDGA supplemented diet (Table VII).
# Rats were trained on a radial eight-arm maze as described previously. After they achieved 0-2 error level, they underwent surgery for implantation of the cannulae and osmotic pumps. Twenty-four hours after surgery, they were started on the dietary treatment.
# Time and error scores from six trials for each experimental group were subjected to analysis of variance (ANOVA). Tucky-Kramer test for multiple comparisons was used as a posthoc test. Performance in the memory task was analyzed separately over all six trials.
# C57/B6 mice = experiment: 3-nitropropionic acid (3NP) striatal damage model, rotarod and balance beam; format: in vivo; details: 2500 ppm in diet for one month, then 3NP 50 mg/kg i.p. every 12 h for 5 days
# Procedure: Mice were then injected with 50 mg/kg 3NP intraperitoneally, every 12 h for 5 days. Motor performance was assessed daily by a rotarod task and balance was assessed by a balance wire task. In the rotarod task (Hensley et al. 2002), animals were placed on a bar rotating at 1 rpm and accelerating 10 rpm/minute until the animal fell from the bar. In the balance beam test, mice were placed on a 2-cm balance beam by suspending them by the tail, orienting them perpendicular to the beam, and placing the forepaws followed by hindpaws on the balance beam. Mice were left on the beam until they fell onto a soft cushion 75 cm below or until 5 min elapsed. The longest time of each pair of trials was used for statistical analysis.
# mice = details: cited from earlier work
# LnCAP Production of PSA = experiment: LnCAP production of PSA (ELISA); format: cell-based; details: Homo sapiens, LNCaP, 24 h
# Procedure: LnCAP prostate cancer cells were be cultured according to established methods (Horoszewicz et al., 1983). These cells product prostate-specific antigen (PSA), a serine protease that predicts metastatic potential ([…] et al., 2000). […] Each drug was tested in triplicate at each concentration. Medium was removed and tested for PSA concentration using a commercially available enzyme-linked immunosorbent assay (ELISA). Viability was determined in the adherent cells using the MTT assay.
# [1] = tested on: prostaglandin E2 (PGE2) release in TNFα-stimulated EOC-20 cells; experiment: PGE2 release in TNFα-stimulated EOC-20 cells; format: cell-based, mouse; details: submicromolar concentrations
# Description: Prostaglandin E2, a product of the cyclooxygenation of arachidonic acid released from membrane phospholipids, plays major roles in regulating brain injury and inflammation. Although prostaglandin E2 has frequently been considered as a possible inducer of brain damage and degeneration, it may exert beneficial effects in the CNS. Indeed, in spite of its classic role as a pro-inflammatory molecule, several recent in vitro observations indicate that prostaglandin E2 can inhibit microglial activation.
# EOC-20 cells = tested on: EOC-20 cells
# Procedure: Lower IC50 values indicate improved efficacy. FIG. 2 illustrates the principle of the measurement using NDGA as an example test agent. In order to determine viability, cell culture medium was replaced with phenol-free DMEM (Gibco) containing 20 μL/mL of MTT viability reagent (Promega). […] Control cells were taken to indicate 100% viability and intermediate values of MTT reduction were scaled to percentage of control. For each compound, an LD50 value was determined by extrapolation through sublethal concentrations. This value represents the concentration that reduced the MTT viability parameter by 50%.
# G93A-SOD1 mice = experiment: G93A-SOD1 mouse ALS model, NDGA i.p.: rotorod and survival; format: in vivo
# Procedure: More subtle defects in motor performance are measured using a rotorod device. The animals are placed on a horizontal rod set to spin about its long axis, initially at 1 rpm. The revolution rate is increased at a constant rate of 1 rpm every 10 sec and the experiment continues until the animal falls off the rod. In contrast to mice bearing mutant SOD1 transgenes, animals bearing the wild-type human SOD1 transgenes display healthy motor function.
# The G93A-SOD1 mice were used to test for in vivo efficacy of a benchmark tethered bis(polyhydroxyphenyl) compound, nordihydroguaiaretic acid (NDGA). In one experiment, 10 G93A-SOD1 animals were trained to the rotorod task at 85 days of age. At 90 days of age, animals were divided into two groups of 5 animals each. One group was injected intraperitoneally with NDGA (10 mg/kg, 5 days/week, in 95% saline/5% DMSO vehicle). The control group received vehicle only. Animals were tested on the rotorod device every 5 days subsequently.
# Initially, rotorod performance characteristics improve in all mice as the animals become acquainted with the apparatus. At 100 days animals obtain peak performance (FIG. 3A). At timepoints subsequent to 100 day, animals decline in motor performance. In order to control for differences in initial strength amongst the 10 animals, all data subsequent to the 100 day timepoint was expressed as a percentage relative to the peak performance at 100 day (FIGS. 3B and 3C). […] When the data in FIG. 3B were assessed using repeated measures analysis of variance (ANOVA), a significant age X treatment effect was observed (p<0.005). At the 120D timepoint, the statistical assessment by Student's t-test indicates p<0.08 between drug and vehicle groups (i.e. 92% probability of a protective drug effect).
# The potency of NDGA in vitro inspired further study in vivo. Two separate studies were performed. In the first experiment, 10 G93A-SOD1 mice were randomized into groups receiving 10 mg/kg NDGA i.p. or vehicle alone, beginning at 90 D of age. […] Rotarod performance tests were conducted at 5 D intervals. […] The median lifespan of the five NDGA-treated animals was 127 D, as compared to 121 D for the control group, representing a 20% extension of lifespan after the start of treatment.
# In a separate experiment, NDGA was administered intraperitoneally to a small group of G93A-SOD1 mice (5 control and 5 drug-treated animals; 10 mg/kg 5 days/week beginning at 90 D). In this paradigm, NDGA also extended survival although logrank statistics were not formally significant (median lifespan after start of treatment=31 D in control animals and 37 D in NDGA-treated animals; p=0.074 by logrank test). […] The i.p. administration of NDGA was somewhat affected by the inclusion of DMSO in vehicle; G93A-SOD1 mice receiving DMSO alone died approximately 10 D sooner than normally would be expected from these animals. Taken together, the data strongly indicate a positive effect of NDGA on the prognosis of disease in rapidly-progressing G93A-SOD1 mice.
compound,measurement,setting,value
"C[C@H](Cc1ccc(O)c(O)c1)[C@@H](C)Cc1ccc(O)c(O)c1 [NDGA, 1,4-bis (3,4-Dihydroxyphenyl)-2,3-dimethylbutane]",water solubility,Water solubility,limited water solubility
same,working memory errors and latency,Aβ-induced neurotoxicity; day 25,significant decrease in the number of working memory errors and latency
same,reference errors,"Aβ-induced neurotoxicity; day 25 and day 30, not significant",suppressed reference errors
same,balance test,C57/B6 mice,significantly improved functional ability
same,rotarod test,C57/B6 mice,significantly improved functional ability
same,effects of long-term feeding,"mice; 0.5% of the diet, long-term, mice",no ill effects
same,LD50,"mice; mouse, in vivo, ip",greater than 500 mg/kg
same,IC50,LnCAP Production of PSA,15 µM
same,inhibition of prostaglandin E2 (PGE2) release,[1],effective at submicromolar concentrations
same,inhibition of prostaglandin E2 (PGE2) release,[1]; listed as NGDA,effectively inhibits prostaglandin E2 (PGE2)
same,toxicity at 100 μM,EOC-20 cells,no toxicity
same,median lifespan after start of treatment,G93A-SOD1 mice; 10 mg/kg i.p. 5 days/week from 90 D,37 D
same,extension of lifespan after the start of treatment,G93A-SOD1 mice; 10 mg/kg i.p. from 90 D,20%
same,median lifespan,G93A-SOD1 mice; 10 mg/kg i.p. from 90 D,127 D
same,reduction in rate of motor functional decline relative to vehicle,"G93A-SOD1 mice; 10 mg/kg i.p. from 90 D, linear regression 100-120D",38%
same,slope of motor functional decline,"G93A-SOD1 mice; 10 mg/kg i.p., 100-120D",2.96 % decrease/day
same,rotarod performance,G93A-SOD1 mice; i.p. administration,not significantly affected

# Source: patent US20040014721A1, “Method for using tethered bis(polyhydroxyphenyls) and O-alkyl derivatives thereof in treating inflammatory conditions of the central nervous system” (Oklahoma Medical Research Foundation, priority 2002, published 2004)
